According to patent publication US20220395490A1, “TREATMENT OF ARTHRITIS” (Inflazome Limited, priority 2019, published 2022):
Where two headings read alike, the source gives them in different places.

Legend:
[1] = test system: MSU-induced knee inflammation (gout) in male Wistar rats; experiment: Prophylactic efficacy in rodent model of MSU-induced knee inflammation (gout); assay type: in vivo; settings: for effect on pain associated with MSU-induced knee edema (mechanical allodynia, von Frey) / inhibition of the MSU-stimulated knee edema: 10 mg/kg once daily oral
Method: To determine the oral anti-inflammatory and anti-nociceptive efficacy of prophylactic treatment with the compound of formula (I) in a rodent model MSU-induced knee inflammation (gout) in male Wistar rats.
A. Preparation of MSU crystals: • 1. 4 g uric acid was dissolved in 800 ml 0.03 N NaOH and heated to 60° C. NaOH was added as required to maintain pH 8.9. The solution was stored overnight at 4-8° C. • 2. Crystals were filtered, washed and dried. • 3. Crystals were suspended in sterile saline just prior to use.
B. Efficacy Study: • 1. […] DAY −1. Baseline readings were taken
Baseline knee diameters were measured by digital caliper.
Baseline responses to mechanical allodynia, as measured by von Frey fibres, were recorded. • 3. DAY 0:
a. The rats were weighed and dosed by oral gavage with vehicle, prednisolone (10 mg/kg) or the compound of formula (I) (1, 3 or 10 mg/kg)
b. One hour after dosing, rats in Groups 1-5 were anesthetized and injected IA into the left knee with 2 mg MSU in 50 μl saline. • 4. DAY 1:
a. Rats were weighed and dosed as on DAY 0.
b. One hour after dosing, mechanical allodynia and knee diameters were measured and recorded. • 5. DAY 2:
b. One hour after dosing, mechanical allodynia and knee diameters were measured and recorded.
c. Four hours after final dosing, terminal bleeds were collected.

[2] = test system: MSU-induced knee inflammation (gout) in male Wistar rats; assay type: in vivo; settings: for left knee diameter on DAY 3: vehicle group 15.0 mm; for response to mechanical allodynia on DAY 3: vehicle group 5.8; for reduction in the MSU-induced edema and pain: daily
Method: To determine the oral anti-inflammatory and anti-nociceptive efficacy of therapeutic treatment with the compound of formula (I) in a rodent model MSU-induced knee inflammation (gout) in male Wistar rats.
300 mg MSU crystal were suspended in 7.5 ml PBS (Sigma, Cat. D8662, lot. RNBG0405, exp. April 2019) to prepare a 40 mg/ml suspension. Material was kept in a sonicating water bath to maintain homogeneous suspension between injections. The rats were weighed.
The rats were anesthetized (SOP 1810), knees were shaved, and injected into the left knee with 50 μl MSU (2 mg) crystals using a 25 G needle fitted to a 1 ml syringe.
Group 1=PBS (Sigma, Cat. D8662, lot RNBG0405, exp. […]). Dosed at 1 ml/kg, PO.
Group 3=37 mg of the compound of formula (I) was dissolved in 3.7 ml PBS to prepare a 10 mg/ml solution. Dosed at 1 ml/kg, PO.
Test materials were made fresh daily. All rats were weighed and dosed by intraperitoneal injection or orally. Mechanical allodynia responses and knee diameters were recorded one hour post dosing.
On DAY 3, four hours after dosing, the rats were anesthetized and exsanguinated into pre-chilled K2 EDTA vacutainer tubes (Becton Dickinson, Cat. 367844, lot 6253682, exp. Jan. 31, 2018). The blood was processed to plasma, gently mixed and centrifuged at 4° C. 1800g for 10 minutes not later than 20 minutes from blood collection, which was stored in two 90 μl minimum volume and four 20 μl aliquots were prepared in labeled eppendorf tubes, and immediately stored frozen at −80° C. The carcasses were disposed of appropriately.

[3] = 1 mg/kg (Group 5) once daily oral, starting one hour prior to intra-articular 2 mg MSU
[4] = starting one hour prior to intra-articular 2 mg MSU

| Molecule | reduction of knee edema [1, 3] [%] | reduction of pain response (mechanical allodynia) [1, 3] [%] | efficacy of intermediate dose compared with high dose (10 mg/kg) ([1]; 3 mg/kg (Group 4) once daily oral) | effect on pain associated with MSU-induced knee edema (mechanical allodynia, von Frey) [1, 4] | inhibition of the MSU-stimulated knee edema [1, 4] [%] | inhibition of the MSU-stimulated response across doses ([1]; once daily oral 1, 3, 10 mg/kg) | effect on animal weight ([1]; sodium salt in PBS, once daily oral, 1, 3 or 10 mg/kg) | left knee diameter on DAY 3 ([2]; 10 mg/kg PO once daily Day 1-3 after 2 mg MSU, baseline 12.3 mm) [mm] | response to mechanical allodynia on DAY 3 ([2]; 10 mg/kg PO once daily Day 1-3 after 2 mg MSU, baseline 14.5) | reduction in the MSU-induced edema and pain ([2]; 10 mg/kg orally) | effect on animal weight ([1]; prednisolone 10 mg/kg once daily oral) | left knee diameter on DAY 3 ([2]; Anakinra 50 mg/kg IP once daily Day 1-3 after 2 mg MSU, baseline 12.4 mm) [mm] | response to mechanical allodynia on DAY 3 ([2]; Anakinra 50 mg/kg IP once daily Day 1-3 after 2 mg MSU, baseline 13.9) | reduction in the MSU-induced edema and pain ([2]; Anakinra 50 mg/kg by peritoneal injection) | effect on animal health ([2]; rat, in vivo, ip) |
| --- | --- | --- | --- | --- | --- | --- | --- | --- | --- | --- | --- | --- | --- | --- | --- |
| CC(C)n1ccc(S(=O)(=O)NC(=O)Nc2c3c(cc4c2CCC4)CCC3)n1 [compound of formula (I)] | 34 | 66 | no significant difference | complete blockade | 49 | significant dose-dependent inhibition | no significant effect | 13.6 | 12.5 grams of pressure | significant reduction |  |  |  |  |  |
| C[C@]12C=CC(=O)C=C1CC[C@@H]1[C@@H]2[C@@H](O)C[C@@]2(C)[C@H]1CC[C@]2(O)C(=O)CO [prednisolone, reference compound] |  |  |  | significant insensitivity to pain | 52 |  |  |  |  |  | no significant effect |  |  |  |  |
| Anakinra |  |  |  |  |  |  |  |  |  |  |  | 14.0 | 9.0 grams of pressure | significant reduction | no effect |
